The nature of experiment [1]: Luminescence Cell-Based Dose Retest to Confirm Inhibitors of Cancer Stem Cells. [Related pubchem assays (depositor defined):AID2717, AID2721]. It counts as functional. The note with it: Homo sapiens.
Experiment [2] concerns the target ATP-dependent molecular chaperone HSP82 (Candida albicans (strain WO-1) (Yeast), UniProt C4YTQ8). The experiment can be described thus: loss of DOC-induced GRE-beta-galactosidase reporter signal, dose response, Hsp90 inhibitor project, S. cerevisiae, luminescence (AID 2400).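 Further: beta-galactosidase luminescence from glucocorticoid response element reporter as proxy for Hsp90 function; inhibitor potency where signal loss means Hsp90 inhibition.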 It counts as functional, cell-based.
Experiment [3] has as its target Multidrug resistance protein CDR1 (Candida albicans, UniProt P43071). Nature of the experiment: CaCDR1 efflux pump inhibitors in yeast, dose response, S. cerevisiae AD1-8u, singleplex, Cherry Pick1 hits (AID 588606). It counts as functional.
A short description of experiment [4]: Luminescence Cell-Based Dose Response HTS to Identify Inhibitors of 5'UTR Stem-Loop Driven Prion Protein mRNA Translation in H4 Neuroglioblastoma Cells. [Related pubchem assays: 1827 (Project Summary), 1813 (Primary HTS)]. The class given is functional.
Experiment [5] concerns the target T1, Streptokinase A (Streptococcus pyogenes serotype M1, UniProt P10520).
T1 sequence (P10520 whole entry): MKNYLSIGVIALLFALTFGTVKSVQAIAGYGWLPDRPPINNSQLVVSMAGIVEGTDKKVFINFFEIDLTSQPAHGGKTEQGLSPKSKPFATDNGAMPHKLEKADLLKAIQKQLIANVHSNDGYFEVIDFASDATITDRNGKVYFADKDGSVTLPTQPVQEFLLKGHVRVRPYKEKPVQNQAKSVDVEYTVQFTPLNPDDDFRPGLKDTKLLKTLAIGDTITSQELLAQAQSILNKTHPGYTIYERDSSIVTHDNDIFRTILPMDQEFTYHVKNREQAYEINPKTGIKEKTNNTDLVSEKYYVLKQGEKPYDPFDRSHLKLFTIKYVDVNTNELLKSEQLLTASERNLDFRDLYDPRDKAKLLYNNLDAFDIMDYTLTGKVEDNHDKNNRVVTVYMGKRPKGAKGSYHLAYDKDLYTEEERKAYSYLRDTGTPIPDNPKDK
Nature of the experiment: S. pyogenes streptokinase expression inhibitors, potency, dose response, plasminogen activation absorbance, OD405 (AID 1914).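 Further: secreted streptokinase activity via plasminogen activation per viability signal from cell pellet.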 The class given is functional, Streptococcus pyogenes M1 GAS.

In experiment [6] the test system is BJ. The experiment can be described thus: cells. The note with it: Homo sapiens. It counts as functional, cell-based.
Experiment [7] deals with BJ. The experiment can be described thus: cytotoxicity toward BJ-TERT-LT-ST fibroblasts, dose response, cell-based, RAS-independent, luminescence (AID 1935).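 Further: BJ fibroblasts immortalized with TERT plus LT and ST oncogenes.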 The note with it: Homo sapiens. The class given is functional.
The target of experiment [8] is Sphingosine 1-phosphate receptor 1 (Homo sapiens, UniProt P21453). It counts as functional.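 Further: Tango beta-arrestin reporter U2OS cells stimulated with S1P near its EC80; inhibitor potency meaning antagonism of receptor activation by the natural agonist.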
Experiment [9] addresses T2, Hexokinase HKDC1 (Homo sapiens, UniProt Q2TB90).
T2 sequence (Q2TB90 whole entry): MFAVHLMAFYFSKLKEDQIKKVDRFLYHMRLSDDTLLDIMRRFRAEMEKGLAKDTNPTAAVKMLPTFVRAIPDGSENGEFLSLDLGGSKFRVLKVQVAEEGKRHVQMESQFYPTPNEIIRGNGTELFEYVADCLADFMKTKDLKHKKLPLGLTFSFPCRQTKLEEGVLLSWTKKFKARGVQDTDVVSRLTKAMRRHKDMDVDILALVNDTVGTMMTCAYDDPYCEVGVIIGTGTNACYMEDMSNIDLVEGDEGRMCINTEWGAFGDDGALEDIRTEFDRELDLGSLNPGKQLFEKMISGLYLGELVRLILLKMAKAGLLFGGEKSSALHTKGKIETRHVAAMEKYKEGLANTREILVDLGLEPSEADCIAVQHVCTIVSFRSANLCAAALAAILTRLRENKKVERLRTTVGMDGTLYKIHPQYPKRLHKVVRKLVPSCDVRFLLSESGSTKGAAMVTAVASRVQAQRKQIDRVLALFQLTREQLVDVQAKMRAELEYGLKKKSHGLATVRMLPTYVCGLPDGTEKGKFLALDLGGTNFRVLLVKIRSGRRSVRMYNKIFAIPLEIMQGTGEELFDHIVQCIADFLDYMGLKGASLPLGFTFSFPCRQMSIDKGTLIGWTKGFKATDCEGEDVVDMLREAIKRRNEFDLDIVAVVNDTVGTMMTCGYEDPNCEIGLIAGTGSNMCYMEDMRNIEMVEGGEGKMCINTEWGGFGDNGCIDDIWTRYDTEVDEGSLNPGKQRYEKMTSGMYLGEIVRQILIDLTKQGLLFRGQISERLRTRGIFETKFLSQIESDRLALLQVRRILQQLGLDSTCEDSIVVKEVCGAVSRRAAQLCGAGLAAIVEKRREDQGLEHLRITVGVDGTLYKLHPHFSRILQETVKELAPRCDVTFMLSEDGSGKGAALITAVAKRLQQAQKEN
The experiment can be described thus: HKDC1 hexokinase inhibitors, dose response, biochemical, W721R variant (AID 504729). The class given is functional.

Experiment [10] has as its target Eukaryotic elongation factor 2 kinase (Homo sapiens, UniProt O00418). It counts as functional.
Experiment [11] deals with Death-associated protein kinase 3 (Homo sapiens, UniProt O43293). It counts as functional.
Chain of Death-associated protein kinase 3 (O43293 whole entry): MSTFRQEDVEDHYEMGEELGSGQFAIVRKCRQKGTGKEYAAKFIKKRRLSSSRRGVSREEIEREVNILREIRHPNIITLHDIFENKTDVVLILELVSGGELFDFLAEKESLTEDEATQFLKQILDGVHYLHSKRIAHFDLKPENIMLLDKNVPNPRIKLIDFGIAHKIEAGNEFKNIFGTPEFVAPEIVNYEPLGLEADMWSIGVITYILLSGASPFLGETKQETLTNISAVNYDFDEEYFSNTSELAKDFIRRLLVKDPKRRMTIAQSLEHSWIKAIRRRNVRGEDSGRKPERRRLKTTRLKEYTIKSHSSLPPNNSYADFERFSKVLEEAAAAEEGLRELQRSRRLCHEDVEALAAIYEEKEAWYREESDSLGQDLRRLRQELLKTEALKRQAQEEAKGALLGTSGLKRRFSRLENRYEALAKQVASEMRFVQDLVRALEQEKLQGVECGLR
The target of experiment [12] is Mitogen-activated protein kinase 8 (Homo sapiens, UniProt P45983). The class given is functional.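 Further: value comes from one member of a kinome-wide kinase profiling panel.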
The target in experiment [13] is Calcium/calmodulin-dependent protein kinase type II subunit delta (Homo sapiens, UniProt Q13557). It counts as functional.
The target in experiment [14] is Tyrosine-protein kinase Srms (Homo sapiens, UniProt Q9H3Y6). It counts as functional.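 Further: SRMS measured as one member of a kinome-wide kinase profiling panel.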
Chain of Tyrosine-protein kinase Srms (Q9H3Y6 whole entry): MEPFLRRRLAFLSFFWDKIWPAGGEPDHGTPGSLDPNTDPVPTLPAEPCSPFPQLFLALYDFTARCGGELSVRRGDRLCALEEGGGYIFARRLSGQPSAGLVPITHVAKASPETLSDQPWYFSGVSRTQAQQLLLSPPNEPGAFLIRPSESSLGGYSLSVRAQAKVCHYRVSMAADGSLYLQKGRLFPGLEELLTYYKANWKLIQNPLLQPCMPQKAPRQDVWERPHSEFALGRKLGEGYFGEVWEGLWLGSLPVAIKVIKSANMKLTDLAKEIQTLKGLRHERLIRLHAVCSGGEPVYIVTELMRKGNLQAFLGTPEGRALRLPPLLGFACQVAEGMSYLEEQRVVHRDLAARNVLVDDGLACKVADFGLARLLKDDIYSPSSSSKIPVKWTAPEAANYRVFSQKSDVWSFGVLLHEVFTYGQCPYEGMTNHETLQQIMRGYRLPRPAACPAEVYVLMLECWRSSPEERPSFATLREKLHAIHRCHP
Experiment [15] deals with Glycogen synthase kinase-3 alpha (Homo sapiens, UniProt P49840). The class given is functional.
For experiment [16], the target named is Hepatocyte growth factor receptor (Homo sapiens, UniProt P08581). It counts as functional.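 Further: kinase panel profiling across the kinome, with MET as the panel member.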
Chain of Hepatocyte growth factor receptor (P08581 whole entry): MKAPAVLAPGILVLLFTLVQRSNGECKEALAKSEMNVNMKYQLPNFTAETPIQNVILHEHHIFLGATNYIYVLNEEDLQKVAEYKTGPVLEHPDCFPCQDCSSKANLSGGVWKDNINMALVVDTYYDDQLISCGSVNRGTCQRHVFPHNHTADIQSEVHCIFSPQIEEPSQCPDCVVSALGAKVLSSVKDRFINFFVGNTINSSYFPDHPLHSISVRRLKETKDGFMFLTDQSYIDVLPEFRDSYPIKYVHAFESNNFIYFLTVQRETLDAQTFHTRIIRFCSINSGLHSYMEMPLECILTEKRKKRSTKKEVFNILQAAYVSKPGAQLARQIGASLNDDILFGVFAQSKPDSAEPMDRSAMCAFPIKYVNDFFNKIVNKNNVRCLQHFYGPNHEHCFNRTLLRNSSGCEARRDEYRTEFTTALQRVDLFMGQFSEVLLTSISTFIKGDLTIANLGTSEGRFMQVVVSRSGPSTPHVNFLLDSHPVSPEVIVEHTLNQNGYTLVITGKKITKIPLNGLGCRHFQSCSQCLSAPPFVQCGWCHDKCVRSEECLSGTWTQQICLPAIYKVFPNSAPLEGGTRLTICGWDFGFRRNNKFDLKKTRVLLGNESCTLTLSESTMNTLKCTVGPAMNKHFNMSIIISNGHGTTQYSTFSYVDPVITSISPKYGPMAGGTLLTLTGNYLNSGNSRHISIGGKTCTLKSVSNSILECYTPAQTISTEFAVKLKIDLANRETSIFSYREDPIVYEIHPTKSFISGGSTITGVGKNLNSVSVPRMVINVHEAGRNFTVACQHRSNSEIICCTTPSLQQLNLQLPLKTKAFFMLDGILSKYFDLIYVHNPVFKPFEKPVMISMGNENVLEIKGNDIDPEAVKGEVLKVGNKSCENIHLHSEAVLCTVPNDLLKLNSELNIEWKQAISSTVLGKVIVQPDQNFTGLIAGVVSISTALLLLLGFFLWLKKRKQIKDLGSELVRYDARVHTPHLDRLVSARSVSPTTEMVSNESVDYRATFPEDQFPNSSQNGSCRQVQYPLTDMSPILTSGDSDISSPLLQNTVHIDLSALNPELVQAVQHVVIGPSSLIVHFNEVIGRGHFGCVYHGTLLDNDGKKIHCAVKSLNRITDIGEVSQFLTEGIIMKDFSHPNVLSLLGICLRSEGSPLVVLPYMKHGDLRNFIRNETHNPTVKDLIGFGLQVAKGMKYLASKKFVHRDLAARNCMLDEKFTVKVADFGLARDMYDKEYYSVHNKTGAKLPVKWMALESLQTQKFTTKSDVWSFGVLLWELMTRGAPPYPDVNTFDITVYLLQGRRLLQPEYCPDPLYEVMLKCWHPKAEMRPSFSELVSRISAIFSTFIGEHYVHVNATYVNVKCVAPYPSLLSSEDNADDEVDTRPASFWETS
Experiment [17] concerns the target Serine/threonine-protein kinase Chk1 (Homo sapiens, UniProt O14757). It counts as functional.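 Further: measured as one member of a kinome-wide kinase profiling panel.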
The target of experiment [18] is Vascular endothelial growth factor receptor 2 (Homo sapiens, UniProt P35968). It counts as functional.
Experiment [19] concerns the target Maternal embryonic leucine zipper kinase (Homo sapiens, UniProt Q14680). It counts as functional.
Experiment [20] concerns the target RAC-alpha serine/threonine-protein kinase (Homo sapiens, UniProt P31749). The class given is functional.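 Further: AKT1 affinity measured as one member of a kinome-wide kinase profiling panel.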
The target of experiment [21] is Cyclin-dependent kinase 9 (Homo sapiens, UniProt P50750). It counts as functional.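 Further: value from the CDK9 entry of a kinome-spanning kinase panel.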
The target in experiment [22] is Receptor tyrosine-protein kinase erbB-4 (Homo sapiens, UniProt Q15303). It counts as functional.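 Further: ERBB4 member of a kinome-wide kinase profiling panel.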
Chain of Receptor tyrosine-protein kinase erbB-4 (Q15303 whole entry): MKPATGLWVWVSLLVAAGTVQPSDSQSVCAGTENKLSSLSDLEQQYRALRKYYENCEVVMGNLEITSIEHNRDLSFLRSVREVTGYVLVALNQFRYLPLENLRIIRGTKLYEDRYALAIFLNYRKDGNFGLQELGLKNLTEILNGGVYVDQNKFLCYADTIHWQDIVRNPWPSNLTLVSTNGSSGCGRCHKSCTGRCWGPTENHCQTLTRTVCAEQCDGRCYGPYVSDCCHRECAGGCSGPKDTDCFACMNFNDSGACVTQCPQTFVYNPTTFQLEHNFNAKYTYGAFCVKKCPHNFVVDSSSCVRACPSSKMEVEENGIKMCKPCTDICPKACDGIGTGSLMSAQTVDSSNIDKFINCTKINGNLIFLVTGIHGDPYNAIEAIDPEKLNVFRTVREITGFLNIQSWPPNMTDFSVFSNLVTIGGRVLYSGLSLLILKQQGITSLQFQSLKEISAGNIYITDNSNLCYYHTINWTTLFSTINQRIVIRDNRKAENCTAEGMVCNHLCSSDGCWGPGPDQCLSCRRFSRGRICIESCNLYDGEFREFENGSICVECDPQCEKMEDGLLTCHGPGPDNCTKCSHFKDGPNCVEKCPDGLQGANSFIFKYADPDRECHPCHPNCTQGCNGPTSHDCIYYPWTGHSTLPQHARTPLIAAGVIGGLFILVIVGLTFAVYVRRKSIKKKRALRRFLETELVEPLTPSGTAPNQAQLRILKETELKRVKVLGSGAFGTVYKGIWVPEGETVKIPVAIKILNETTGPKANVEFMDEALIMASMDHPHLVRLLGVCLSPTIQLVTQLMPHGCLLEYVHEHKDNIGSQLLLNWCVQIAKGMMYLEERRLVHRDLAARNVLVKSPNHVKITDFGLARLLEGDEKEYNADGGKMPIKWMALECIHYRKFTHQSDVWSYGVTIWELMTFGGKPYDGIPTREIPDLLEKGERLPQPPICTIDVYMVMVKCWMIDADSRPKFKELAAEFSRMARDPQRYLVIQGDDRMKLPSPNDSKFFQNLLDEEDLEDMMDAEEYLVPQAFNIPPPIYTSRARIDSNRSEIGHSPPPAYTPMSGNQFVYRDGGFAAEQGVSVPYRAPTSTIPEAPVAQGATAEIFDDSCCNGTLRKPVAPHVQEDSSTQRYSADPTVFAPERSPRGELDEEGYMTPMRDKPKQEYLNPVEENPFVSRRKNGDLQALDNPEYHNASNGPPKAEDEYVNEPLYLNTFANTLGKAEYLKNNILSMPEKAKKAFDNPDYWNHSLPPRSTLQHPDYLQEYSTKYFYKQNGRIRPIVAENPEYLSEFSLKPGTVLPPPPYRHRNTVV
Experiment [23] deals with cAMP-dependent protein kinase catalytic subunit alpha (Homo sapiens, UniProt P17612). It counts as functional.
The target of experiment [24] is Dual specificity protein kinase CLK4 (Homo sapiens, UniProt Q9HAZ1). The class given is functional.
Experiment [25] has as its target Dual specificity tyrosine-phosphorylation-regulated kinase 1A (Homo sapiens, UniProt Q13627). The class given is functional.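 Further: measured against DYRK1A as one member of a broad kinome profiling panel.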
In experiment [26] the target is Leukocyte tyrosine kinase receptor (Homo sapiens, UniProt P29376). Nature of the experiment: Navigating the Kinome. Panel member name: LTK. The class given is functional.

The term AC50 denotes the concentration giving half of the maximal activity seen. By EC50 is commonly meant the concentration at which the effect is half-maximal. What is called IC50 is the concentration that inhibits the measured activity by half. As usually defined, the Ki is a dissociation constant, usually derived from enzyme kinetics or from competition with a known ligand.

Calls of active or inactive are those of the source. Some results are limits rather than exact numbers.
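Wherever AC50 is given: cells exposed to compound for roughly 70 hours or longer before luminescence read.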

Chain of Maternal embryonic leucine zipper kinase (Q14680 whole entry): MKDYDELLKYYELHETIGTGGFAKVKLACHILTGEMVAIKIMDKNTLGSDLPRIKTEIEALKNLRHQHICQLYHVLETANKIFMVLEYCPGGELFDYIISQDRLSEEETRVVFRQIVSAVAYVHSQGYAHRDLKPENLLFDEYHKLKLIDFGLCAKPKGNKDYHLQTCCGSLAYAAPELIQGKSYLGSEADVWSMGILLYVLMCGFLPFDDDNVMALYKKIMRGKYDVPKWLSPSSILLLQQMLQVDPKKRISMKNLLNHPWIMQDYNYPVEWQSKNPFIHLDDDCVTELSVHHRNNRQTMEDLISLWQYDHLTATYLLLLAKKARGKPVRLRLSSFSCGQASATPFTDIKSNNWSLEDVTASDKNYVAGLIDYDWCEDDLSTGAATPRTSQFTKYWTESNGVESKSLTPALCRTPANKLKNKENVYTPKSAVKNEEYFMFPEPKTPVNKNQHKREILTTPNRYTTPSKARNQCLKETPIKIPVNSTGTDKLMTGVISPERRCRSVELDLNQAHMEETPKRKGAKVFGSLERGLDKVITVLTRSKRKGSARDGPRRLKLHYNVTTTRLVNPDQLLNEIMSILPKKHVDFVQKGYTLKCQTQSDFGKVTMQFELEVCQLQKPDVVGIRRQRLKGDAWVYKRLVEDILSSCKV
Chain of ATP-dependent molecular chaperone HSP82 (C4YTQ8 whole entry): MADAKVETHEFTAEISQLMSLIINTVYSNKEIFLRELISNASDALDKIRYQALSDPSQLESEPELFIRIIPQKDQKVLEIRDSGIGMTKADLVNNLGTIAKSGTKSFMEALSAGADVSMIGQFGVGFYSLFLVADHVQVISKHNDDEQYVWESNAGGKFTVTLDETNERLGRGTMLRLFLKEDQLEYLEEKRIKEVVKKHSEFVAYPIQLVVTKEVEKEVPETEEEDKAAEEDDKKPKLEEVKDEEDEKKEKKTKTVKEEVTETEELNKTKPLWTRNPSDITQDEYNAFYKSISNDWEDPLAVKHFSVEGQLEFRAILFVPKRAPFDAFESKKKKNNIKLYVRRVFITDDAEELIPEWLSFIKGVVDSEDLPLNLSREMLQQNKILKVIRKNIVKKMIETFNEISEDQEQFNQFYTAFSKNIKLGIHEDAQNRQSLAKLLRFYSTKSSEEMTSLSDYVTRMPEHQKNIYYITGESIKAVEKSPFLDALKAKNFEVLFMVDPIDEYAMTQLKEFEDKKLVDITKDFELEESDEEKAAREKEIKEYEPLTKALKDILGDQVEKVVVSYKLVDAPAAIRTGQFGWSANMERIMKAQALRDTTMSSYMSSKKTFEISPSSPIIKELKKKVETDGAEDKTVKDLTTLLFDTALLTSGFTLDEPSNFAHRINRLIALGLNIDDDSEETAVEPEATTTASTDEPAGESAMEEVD

Regarding `CN(C)S(=O)(=O)Oc1cccc(C(=O)Nc2ccc(Cl)c(Cl)c2)c1`, the AC50 in [1] was 8.64 µM (active). Also, the EC50 in [2] is 18.2 µM (active).
`Cc1ccc2[nH]c(/C(C#N)=C/c3ccc(O)c(O)c3)nc2c1`: the EC50 in experiment [3] is 13.4 µM (active).
As for `COC(=O)C1CN(C#N)N(c2ccc(Cl)cc2)C12c1ccccc1-c1ccccc12` (stereo unspecified), the EC50 in experiment [4] is 10.1 µM (active); in experiment [5], 0.744 µM (active); in experiment [6], 2.9 µM (active); in experiment [7], 2.49 µM (inconclusive). For the same molecule, the IC50 in experiment [8] was 5.76 µM (active); in [9], 3.81 µM (active).
As for `Nc1noc2cccc(-c3cccc(O)c3)c12`, the Ki was > 3.98 µM (inactive) in experiment [10]; > 25.1 µM (inactive) in experiment [11]; > 25.1 µM (inactive) in experiment [12]; 2.51 µM (active) in experiment [13]; > 1.58 µM (inactive) in experiment [14]; > 50.1 µM (inactive) in experiment [15]. Further, the Ki is > 12.6 µM (inactive) in [16]; > 7.94 µM (inactive) in experiment [17]; 7.94 µM (active) in experiment [18]; > 1.58 µM (inactive) in experiment [19]; > 7.94 µM (inactive) in experiment [20]; 15.8 µM (active) in experiment [21]. In addition, the Ki in [22] is > 3.98 µM (inactive); in [23], 2.51 µM (active); in experiment [24] it was 1.26 µM (active); in [25], 2 µM (active); in experiment [26], 1.26 µM (active).

The values above are taken from ChEMBL document CHEMBL1201862, “PubChem BioAssay data set” (2004).
